From patent publication US20250186521A1 (priority 2018, published 2025)

Experiments:
Format in all cases: in vivo, Broiler chickens
[1] = test system: mixed E. acervulina, E. maxima, and E. tenella coccidial inoculum; assay: Anticoccidial efficacy versus salinomycin (Example 5): performance, average lesion score, total OPG; conditions: 60 g/t
From the text: (§1) • 1. No Additive, no Cocci. • 2. No Additive, Cocci. • 3. Salinomycin 60 g/t, Cocci. • 4. Product Z 0.551%, Cocci.
(§2) Cages were blocked by location in the battery with block size equal to the groups (8 cages per block). The study began when the birds were placed (day of hatch, i.e., DOT 0) at which time they were allocated to the experimental cages. Only healthy birds were selected (10 birds/cage).
(§3) Upon arrival, chicks were raised in Petersime battery cages. At placement the birds were fed the various feeds. The Petersime batteries were in an insulated building having a concrete floor and a metal overhead structure. The floor space per animal was 0.51 sq. ft. per bird. The feeder space per bird was 10 birds per 24×3.5-inch feeder. Uniform temperature and illumination was provided.
(§4) An unmedicated commercial chicken feed composition compounded with feedstuffs commonly used in the U.S. poultry industry, such as cereals and proteins, was obtained. The diet was an all-vegetable feed with no antibiotics, organic acids, NSP enzymes, or direct fed microbial. This feed in mash form was fed ad libitum from the date of chick arrival until Day 28 of the study. Experimental feeds augmented with the algal biomass were prepared from this commercial poultry feed. The feeds were mixed to assure a uniform distribution of algal biomass into the mash feed.
Day of hatch male broiler chicks of strain Cobb X Cobb were obtained from Cobb-Vantress, Cleveland, GA. Sets of ten chicks were randomly selected, group weighed and placed into cages. No birds were replaced during the study.
(§5) All birds were weighed by cage on DOT 0, 14, 20 and 28. Feed was weighed in on DOT 0 and remaining feed was weighed on DOT 14, 20, and 28.
Coccidial oocysts inoculation procedures were described. On Day 14 of the study all birds except Tl orally received a mixed E. acervulina, E. maxima, and E. tenella coccidial inoculum diluted to a 1 ml volume (p.o.). Inoculum level attempted to produce a moderate challenge.
(§6) On DOT 20, five birds from each cage were selected, sacrificed, weighed, and examined for the degree of presence of coccidia lesions. If less than five birds were present at time of scoring, all remaining birds within the cage were scored. The Johnson and Reid, 1970 method of coccidiosis lesion scoring was used to score the infected region(s) of the intestine. The scoring was based on a 0 to 4 score, with 0 being normal and 4 being the most severe.
(§7) Day 19 (Day 5 post challenge) drop pans from all cages were cleaned. Day 20 (Day 6 pc) mixed feces were collected from each cage. Each sample was examined for the number of oocysts per gram fecal material by fecal floatation.
(§8) Means for cage weight gain, feed consumption, feed conversion rate, lesion scores, opgs, and mortality were calculated.

[2] = test system: Eimeria maxima; assay: Cocci Test (Example 6): lesion score and OPG, Eimeria maxima; conditions: 1.0 lb/t, infected
From the text: (§9) • 1. No Additive, no Cocci • 2. No Additive, Cocci • 3. Salinomycin 60 g/t, Cocci • 4.
(§10) Each group was replicated 10 times. Cages were blocked by location in the battery with block size equal to groups (7 cages per block). The study began when the birds were placed (day of hatch, i.e., DOT 0) at which time they were allocated to the experimental cages. Only healthy birds were selected (10 birds/cage).
as §4, with “mash feed. […]” for “mash feed.”
(§11) On DOT 20, five birds from each cage were selected, sacrificed, weighed, and examined for the degree of presence of coccidia lesions. If less than five birds were present at time of scoring, all remaining birds within the cage were scored. […]
as §8

[3] = test system: Eimeria tenella; assay: Cocci Test (Example 6): lesion score and OPG, Eimeria tenella; conditions: 1.0 lb/t, infected
From the text: as §9, §10
as §4, with “mash feed. […]” for “mash feed.”
as §11, §8

[4] = test system: Eimeria maxima; assay: Anticoccidial efficacy (Example 5): lesion score and OPG, Eimeria maxima; conditions: 60 g/t, infected
From the text: as §1, §2
as §4, with “mash feed. […]” for “mash feed.”
as §11, §8

[5] = test system: Eimeria tenella; assay: Anticoccidial efficacy (Example 5): lesion score and OPG, Eimeria tenella; conditions: 60 g/t, infected
From the text: as §1, §2
as §4, with “mash feed. […]” for “mash feed.”
as §11, §8

[6] = test system: mixed E. acervulina, E. maxima, and E. tenella coccidial inoculum; assay: Cocci Test (Example 6): performance, average lesion score, total OPG; conditions: 1.0 lb/t
From the text: as §9, §10
as §3, with “ft” for “ft.”
as §4
Day of hatch male broiler chicks of strain Cobb 500 were obtained from Cobb-Vantress, Cleveland, GA. Sets of ten chicks were randomly selected, group weighed and placed into cages. Number and disposition of all birds not used for allocation were documented. No birds were replaced during the study.
as §5
On Day 14 of the study all birds except Tl orally received a mixed E. acervulina, E. maxima, and E. tenella coccidial inoculum diluted to a 1 ml volume (p.o.). Inoculum level attempted to produce a moderate challenge.
as §6, §7, §8

[7] = test system: Eimeria acervulina; assay: Cocci Test (Example 6): lesion score and OPG, Eimeria acervulina; conditions: 1.0 lb/t, infected
From the text: as §9, §10
as §4, with “mash feed. […]” for “mash feed.”
as §11, §8

[8] = test system: Eimeria acervulina; assay: Anticoccidial efficacy (Example 5): lesion score and OPG, Eimeria acervulina; conditions: 60 g/t, infected
From the text: as §1, §2
as §4, with “mash feed. […]” for “mash feed.”
as §11, §8

CC[C@@H](C(=O)[C@@H](C)[C@@H](O)[C@H](C)[C@@H]1O[C@@H]([C@@H](CC)C(=O)O)CC[C@@H]1C)[C@H]1O[C@]2(C=C[C@@H](O)[C@]3(CC[C@@](C)([C@H]4CC[C@](O)(CC)[C@H](C)O4)O3)O2)[C@H](C)C[C@@H]1C [Salinomycin]
FCR Day 0-20 ([1]; infected): 1.597bc
FCR Day 0-28 ([1]; infected): 1.625bc
FCR Day 14-20 ([1]; infected): 1.744b
FCR Day 14-28 ([1]; infected): 1.766c
Feed Intake Day 0-20 ([1]; infected): 5.433a
Feed Intake Day 0-28 ([1]; infected): 5.918a
Feed Intake Day 14-20 ([1]; infected): 3.049a
Feed Intake Day 14-28 ([1]; infected): 3.534a
Wt. Gain Day 0-20 ([1]; infected): 0.360b
Wt. Gain Day 0-28 ([1]; infected): 0.376b
Wt. Gain Day 14-20 ([1]; infected): 0.185b
Wt. Gain Day 14-28 ([1]; infected): 0.202b
FCR Day 14 ([1]; infected on Day 14): 1.156a
Feed Intake Day 14 ([1]; infected on Day 14): 2.384a
Wt. Gain Day 14 ([1]; infected on Day 14): 0.218a
Lesion Scores Avg. ([1]; infected, DOT 20, 0 to 4 score): 1.3c
OPG Total Avg. ([1]; infected, Day 20 feces): 9722b OPG
Lesion Scores Eimeria maxima ([2]; DOT 20, 0 to 4 score): 1.7b
OPG Eimeria maxima ([2]; Day 20 feces): 2608a OPG
Lesion Scores Eimeria tenella ([3]; DOT 20, 0 to 4 score): 1.1b
OPG Eimeria tenella ([3]; Day 20 feces): 1768b OPG
Lesion Scores Eimeria maxima ([4]; DOT 20, 0 to 4 score): 0.9c
OPG Eimeria maxima ([4]; Day 20 feces): 484b OPG
Lesion Scores Eimeria tenella ([5]; DOT 20, 0 to 4 score): 0.7c
OPG Eimeria tenella ([5]; Day 20 feces): 4727c OPG
FCR Day 0-20 ([6]; infected): 1.876ab
FCR Day 0-28 ([6]; infected): 1.832a
FCR Day 14-20 ([6]; infected): 1.839b
FCR Day 14-28 ([6]; infected): 1.789a
Feed Intake Day 0-20 ([6]; infected): 7.064b
Feed Intake Day 0-28 ([6]; infected): 9.852bc
Feed Intake Day 14-20 ([6]; infected): 3.628b
Feed Intake Day 14-28 ([6]; infected): 6.416b
Wt. Gain Day 0-20 ([6]; infected): 0.382b
Wt. Gain Day 0-28 ([6]; infected): 0.718bc
Wt. Gain Day 14-20 ([6]; infected): 0.201b
Wt. Gain Day 14-28 ([6]; infected): 0.537b
FCR Day 14 ([6]; infected on Day 14): 1.491a
Feed Intake Day 14 ([6]; infected on Day 14): 3.436ab
Wt. Gain Day 14 ([6]; infected on Day 14): 0.232b
Lesion Scores Avg. ([6]; infected, DOT 20, 0 to 4 score): 1.5c
OPG Total Avg. ([6]; infected, Day 20 feces): 35.178c OPG
Lesion Scores Eimeria acervulina ([7]; DOT 20, 0 to 4 score): 1.7c
OPG Eimeria acervulina ([7]; Day 20 feces): 30802c OPG
Lesion Scores Eimeria acervulina ([8]; DOT 20, 0 to 4 score): 2.1c
OPG Eimeria acervulina ([8]; Day 20 feces): 4511c OPG
